The supplement of paper PMC10307832

Legend:
Assay in all cases: relative viability (nuclei count vs DMSO), 5 days (fraction); higher = more cells survive
IPA-3 + AZD7762 = compound: C1=CC=C2C(=C1)C=CC(=C2SSC3=C(C=CC4=CC=CC=C43)O)O [IPA-3] + NC(=O)Nc1cc(-c2cccc(F)c2)sc1C(=O)N[C@H]1CCCNC1 [AZD7762] (partner 0.2 µM)
In short: (§1)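 Relative viability divides the nuclei count in treated wells by that in vehicle wells. Lung cancer cell lines were seeded in 1536-well plates, dosed by pin tool the next day, and fixed and stained after 5 days in one step with final 0.05% Triton X-100, 1% formaldehyde and 1 ug/ml Hoechst. Dosing was a single drug or a fixed anchor-drug dose plus five library-drug doses (not always all listed) in √10 steps, and values are medians of duplicate plates imaged at 4×.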

IPA-3 + Lapatinib = compound: C1=CC=C2C(=C1)C=CC(=C2SSC3=C(C=CC4=CC=CC=C43)O)O [IPA-3] + CS(=O)(=O)CCNCc1ccc(-c2ccc3ncnc(Nc4ccc(OCc5cccc(F)c5)c(Cl)c4)c3c2)o1 [Lapatinib] (partner 2 µM)
In short: as §1

RAF265 + Trametinib = compound: Cn1c(Nc2ccc(C(F)(F)F)cc2)nc2cc(Oc3ccnc(-c4ncc(C(F)(F)F)[nH]4)c3)ccc21 [RAF265] + CC(=O)Nc1cccc(-n2c(=O)n(C3CC3)c(=O)c3c(Nc4ccc(I)cc4F)n(C)c(=O)c(C)c32)c1 [Trametinib] (partner 0.02 µM)
In short: as §1

RAF265 + Olaparib = compound: Cn1c(Nc2ccc(C(F)(F)F)cc2)nc2cc(Oc3ccnc(-c4ncc(C(F)(F)F)[nH]4)c3)ccc21 [RAF265] + O=C(c1cc(Cc2n[nH]c(=O)c3ccccc23)ccc1F)N1CCN(C(=O)C2CC2)CC1 [Olaparib] (partner 8 µM)
In short: as §1

Row | Cell Line | relative viability (IPA-3 + AZD7762; first compound 0.2 µM) | relative viability (IPA-3 + AZD7762; first compound 0.6325 µM) | relative viability (IPA-3 + AZD7762; first compound 2 µM) | relative viability (IPA-3 + AZD7762; first compound 6.325 µM) | relative viability (IPA-3 + AZD7762; first compound 20 µM) | relative viability (IPA-3 + Lapatinib; first compound 0.2 µM) | relative viability (IPA-3 + Lapatinib; first compound 0.6325 µM) | relative viability (IPA-3 + Lapatinib; first compound 2 µM) | relative viability (IPA-3 + Lapatinib; first compound 6.325 µM) | relative viability (IPA-3 + Lapatinib; first compound 20 µM) | relative viability (RAF265 + Trametinib; first compound 0.01 µM) | relative viability (RAF265 + Trametinib; first compound 0.03162 µM) | relative viability (RAF265 + Trametinib; first compound 0.1 µM) | relative viability (RAF265 + Trametinib; first compound 0.3162 µM) | relative viability (RAF265 + Trametinib; first compound 1 µM) | relative viability (RAF265 + Olaparib; first compound 0.01 µM) | relative viability (RAF265 + Olaparib; first compound 0.03162 µM) | relative viability (RAF265 + Olaparib; first compound 0.1 µM) | relative viability (RAF265 + Olaparib; first compound 0.3162 µM) | relative viability (RAF265 + Olaparib; first compound 1 µM)
1 | NCI-H838 | 1.05 | 0.94 | 1 | 0.967 | 1.08 | 1.55 | 0.964 | 0.941 | 1.01 | 1.07 | 0.542 | 0.511 | 0.518 | 0.462 | 0.39 | 0.829 | 0.725 | 0.752 | 0.694 | 0.594
2 | NCI-H1355 | 0.807 | 0.764 | 0.73 | 0.827 | 0.719 | 1.11 | 0.968 | 0.941 | 0.966 | 1.01 | 0.438 | 0.355 | 0.383 | 0.283 | 0.206 | 0.814 | 0.732 | 0.694 | 0.608 | 0.31
3 | NCI-H1395 | 0.377 | 0.413 | 0.423 | 0.373 | 0.345 | 0.994 | 0.86 | 0.903 | 0.999 | 1.29 | 1.12 | 0.933 | 1.1 | 0.968 | 0.685 | 0.478 | 0.431 | 0.434 | 0.49 | 0.46
4 | NCI-H1437 | 1.2 | 1.08 | 1.18 | 1.06 | 1.19 | 1.34 | 0.774 | 0.802 | 0.726 | 0.825 | 0.544 | 0.552 | 0.505 | 0.716 | 0.493 | 0.644 | 0.611 | 0.653 | 0.619 | 0.561
5 | NCI-H1651 | 0.573 | 0.473 | 0.411 | 0.554 | 0.499 | 1.18 |  | 0.863 | 0.852 | 0.931 | 0.797 | 0.808 | 0.795 | 0.796 | 0.734 | 0.187 | 0.17 | 0.194 | 0.185 | 0.167
6 | NCI-H1666 | 0.866 | 0.815 | 0.788 | 0.962 | 0.905 | 0.77 | 0.673 | 0.674 | 0.786 | 0.66 | 0.89 | 0.852 | 0.784 | 0.839 | 0.656 | 0.806 | 0.746 | 0.707 | 0.786 | 0.703
7 | NCI-H1734 | 0.637 | 0.508 | 0.624 | 0.571 | 0.496 | 1.19 | 0.969 | 1.12 | 0.982 | 0.892 | 0.722 | 0.526 | 0.564 | 0.535 | 0.276 | 0.627 | 0.574 | 0.575 | 0.511 | 0.344
8 | NCI-H1755 | 0.55 | 0.448 | 0.434 | 0.486 | 0.476 | 1.11 | 0.988 | 1.05 | 1.06 | 1.17 | 0.753 | 0.727 | 0.688 | 0.647 | 0.467 | 0.879 | 0.788 | 0.909 | 0.717 | 0.499
9 | NCI-H1792 | 0.97 | 0.519 |  | 0.604 | 0.572 | 1.07 | 0.888 | 0.94 | 0.894 | 1.01 | 0.485 | 0.408 | 0.361 | 0.218 | 0.0679 | 0.474 | 0.291 | 0.279 | 0.262 | 0.0641
10 | NCI-H1793 | 0.56 | 0.526 | 0.424 | 0.641 | 0.527 | 0.834 | 0.539 | 0.909 | 0.776 | 0.702 | 0.403 | 0.44 | 0.303 | 0.232 | 0.237 | 0.898 | 0.755 | 0.724 | 0.382 | 0.268
11 | NCI-H1915 | 0.77 | 0.713 | 0.693 | 0.68 | 0.694 | 1.06 | 0.968 | 0.934 | 0.941 | 1.02 | 0.327 | 0.275 | 0.23 | 0.151 | 0.1 | 0.256 | 0.248 | 0.235 | 0.224 | 0.136
12 | NCI-H1944 | 0.766 | 0.492 | 0.536 | 0.718 | 0.541 | 0.803 | 0.763 | 0.814 | 1.04 | 0.791 | 0.454 | 0.453 | 0.386 | 0.324 | 0.246 | 0.43 | 0.44 | 0.385 | 0.361 | 0.26
13 | NCI-H1975 | 0.825 | 0.731 | 0.778 | 0.868 | 0.775 | 1.18 | 0.888 | 0.964 | 0.889 | 0.927 | 0.422 | 0.286 | 0.22 | 0.173 | 0.191 | 0.707 | 0.552 | 0.522 | 0.308 | 0.305
14 | NCI-H1993 | 0.971 | 0.922 | 0.85 | 0.738 | 0.726 | 0.829 | 0.742 | 0.767 | 0.909 | 0.738 | 0.585 | 0.619 | 0.542 | 0.384 | 0.435 | 1.21 | 1.41 | 1.19 | 1.07 | 0.886
15 | NCI-H2085 | 1.11 | 0.956 | 1.02 | 0.893 | 1.21 | 0.931 | 0.723 | 0.741 | 0.712 | 0.825 | 0.45 | 0.524 | 0.514 | 0.511 | 0.545 | 0.954 | 0.723 | 0.841 | 0.854 | 0.76
16 | NCI-H2087 | 1.52 | 1.29 | 1.43 | 1.07 | 1.35 | 0.832 | 0.987 | 0.982 | 1.06 | 0.811 | 0.195 | 0.148 | 0.154 | 0.161 | 0.129 | 0.757 | 0.496 | 0.64 | 0.334 | 0.373
17 | NCI-H2126 | 1.05 | 0.974 | 1 | 0.958 | 1.05 | 0.792 | 0.76 | 0.771 | 0.75 | 0.792 | 0.635 | 0.526 | 0.539 | 0.506 | 0.342 | 0.942 | 0.907 | 0.901 | 0.818 | 0.724
18 | NCI-H2170 | 1.1 | 0.826 | 0.78 | 0.795 | 0.919 | 0.269 | 0.259 | 0.274 | 0.274 | 0.267 | 0.928 | 0.86 | 0.792 | 0.666 | 0.56 | 0.58 | 0.485 | 0.596 | 0.438 | 0.405
19 | NCI-H2347 | 0.789 | 0.604 | 0.777 | 0.738 | 0.904 | 1.08 | 0.938 | 0.99 | 0.945 | 0.935 | 0.266 | 0.292 | 0.283 | 0.22 | 0.227 | 0.644 | 0.606 | 0.57 | 0.523 | 0.384
20 | NCI-H2405 | 0.89 | 0.806 | 0.847 | 0.771 | 0.73 | 1.15 | 1 | 0.921 | 1.17 | 1.16 | 0.605 | 0.639 | 0.539 | 0.474 | 0.383 | 0.96 | 0.88 | 0.834 | 0.838 | 0.514
21 | NCI-H3122 | 1.02 | 1.01 | 0.995 | 1.11 | 0.999 | 1.02 | 0.996 | 0.993 | 1.09 | 0.946 | 0.26 | 0.203 | 0.21 | 0.208 | 0.173 | 0.609 | 0.63 | 0.631 | 0.622 | 0.611
22 | PC-3 [JPC-3] | 0.926 | 1.34 | 0.916 | 0.741 | 0.807 | 0.494 | 0.467 | 0.422 | 0.504 | 0.457 | 0.708 | 0.708 | 0.761 | 0.469 | 0.466 | 1.14 | 1.06 | 1.09 | 0.537 | 0.704
23 | PC-14 | 0.402 | 0.362 | 0.431 | 0.328 | 0.407 | 0.419 | 0.331 | 0.328 | 0.328 | 0.407 | 0.814 | 0.711 | 0.716 |  | 0.447 | 0.252 | 0.311 | 0.314 | 0.369 | 0.245
24 | RERF-LC-KJ | 1.08 | 0.955 | 1.01 | 0.921 | 1.15 | 1 | 0.828 | 0.764 | 0.801 | 0.897 | 0.877 | 0.764 | 0.867 | 0.638 | 0.546 | 0.952 | 0.892 | 0.759 | 0.682 | 0.575
